Common to all, as to assay type: cell-based, human
Test [1] concerns U2OS cells. The test can be described thus: Cytotoxicity assay in osteosarcoma U2OS cell line. The settings on record: Homo sapiens, U2OS; alone; read-out: EC50 of killing U2OS cells. On the procedure:
(§1) The H596 [human non-small cell lung cancer (NSCLC)] cell line was cultured in RFMI-1640 medium containing 10% fetal bovine serum (FBS) at 37° C. and 5% CO2. The HEK293T (human embryonic kidney 293T), U2OS (human osteosarcoma), and HCT116 (human colon cancer) cell lines were cultured in Dulbecco's modified Eagle's medium (DMEM) supplemented with 10% FBS at 37° C. and 5% CO2. All culture mediums contain 100 units/mL penicillin and 0.1 mg/mL streptomycin as antibiotics.
(§2) For cytotoxicity assays, 5×10^3 H596 cells were seeded in each well of the 96-well plate and grown for 24 hr in humidified incubator. […] In the combination assay, cisplatin was dissolved in saline solution and compound 81 was dissolved in DMSO. Equal volume of above solutions was added to each well and cells were incubated for 48 hr. Cells treated with equal volume of DMSO and saline were used as control and designated as 100% viability. The cell viability was measured by CCK-8 solution (Dojindo Molecular Technologies, Inc) as previously described (Chen, J., et al.).
Cytotoxicity assays were run as described in Example 6 using the cisplatin-sensitive NSCLC H460 cell line and the osteosarcoma U2OS cell line.

Test [2] deals with USP1/UAF1 cellular activity in H596 cells. The test can be described thus: PCNA and FANCD2 monoubiquitination in H596 cells (Western blot). The settings on record: 30 μM compound 81, 6 hr, as compared to control. On the procedure:
(§3) HEK293T or H596 cells were plated in 10 cm dishes and synchronized in S-phase with the double-thymidine block method as described previously (Chen et al., Chemistry & Biology, 2011. 18(11): 1390-400). […] Negative control cells were treated with an equal volume of DMSO and saline (0.9% NaCl). After 6 hr at 37° C., cells were harvested and lysed. Cell extracts were separated on SDS-PAGE and transferred to nitrocellulose membrane. The membranes were then blotted with PCNA antibody or FANCD2 antibody, followed by incubation with HRP-conjugated anti-mouse secondary antibody. Images were quantified in FluorChem Q software (Imgen Technologies).
In general terms: A western blot detects proteins with antibodies after separation by electrophoresis.

Test [3] has as its system USP1/UAF1 cellular activity in HEK293T cells. The test can be described thus: PCNA and FANCD2 monoubiquitination in HEK293T cells (Western blot). The following applies: 30 μM compound 81, 6 hr, as compared to control. On the procedure:
as §3

In test [4] the test system is H596 cells. The test can be described thus: Cytotoxicity assay in H596 cells (CCK-8 cell viability). The settings on record: Homo sapiens, NCI-H596; alone, 48 hr; read-out: EC50 of killing H596 cells. On the procedure:
as §1, §2

Here are results for one molecule from patent publication US9802904B2, “Inhibitors of the USP1/UAF1 deubiquitinase complex and uses thereof” (The United States of America, as represented by the …, priority 2012, dated 2017).

The EC50 is the concentration needed to bring the measured effect to its halfway point. For `Cc1cnc(-c2ccccc2C(C)C)nc1NCc1ccc(-n2ccnn2)cc1` [Compound 81, N-(4-(1H-1,2,3-triazol-1-yl)benzyl)-2-(2-isopropylphenyl)-5-methylpyrimidin-4-amine], the EC50 in test [1] and in test [4] was above 10 µM each time. The “PCNA and FANCD2 monoubiquitination” value in test [2] is “increase in PCNA and FANCD2 monoubiquitination”; in test [3], “increase in PCNA and FANCD2 monoubiquitination”.
